# Experimental data: PMC9784215, “Silymarin Protects against Acute Liver Injury Induced by Acetaminophen by Downregulating the Expression and Activity of the CYP2E1 Enzyme” (Molecules, 2022)
# What was measured:
# CYP2E1 [1] = target: T1, CYP2E1 (Rattus norvegicus, UniProt P05182); assay: Pharmacokinetics of probe substrate CLX and 6-OH-CLX in rats after 21 days of SM pretreatment; conditions: single oral 30 mg/kg CLX, solvent control group
# Protocol: (§1) SD rats were randomly divided into two groups (six rats in each group). One group was orally administered 4% HP-β-CD (w/v) solution as a solvent control group and the other group was orally administered SM 45 mg/kg (dissolved in 4% HP-β-CD (w/v)) for 21 consecutive days. On the 22nd day, rats in the two groups were given a single oral dose of CLX 30 mg/kg (suspended in 0.5% CMC-Na solution (w/v)). […] After the final blood collection, rats were euthanized by intraperitoneal injection of 50% urethane.
# (§2) The concentrations of APAP and its metabolites in rat plasma and the concentrations of CLX and 6-OH-CLX in rat plasma, and the phase I metabolic system in vitro were determined by HPLC—MS/MS. […] Briefly, a 50 μL plasma sample was vortexed with 10 μL of the internal standard solution, and 150 μL pf methanol was then added to the mixture and shaken for 3 min to precipitate the protein. The sample was centrifuged at 14,000 rpm for 5 min, and 10 µL of the supernatant was analyzed by LC–MS/MS. […] The noncompartmental analysis using Phoenix WinNonlin software (version 6.3, Pharsight Corp, Mountain View, CA, USA) was used to calculate the pharmacokinetic parameters of CLX and 6-OH-CLX.
# APAP-induced ALI mice = assay: APAP-induced ALI in mice: serum ALT/AST, liver reduced GSH, H&E histology; assay type: in vivo, mouse; conditions: APAP 350 mg/kg i.p., 24 h
# Protocol: The levels of ALT and AST in mouse serum and reduced GSH in mouse livers were measured by West China Frontier Pharmatech (Chengdu, China).
# The right lower lobe of the mouse liver was fixed with 4% paraformaldehyde for 24 h in preparation for H&E staining. The embedding and slicing processes for H&E staining were performed by Ao’Chuang Biotechnology Co., Ltd. (Chengdu, China). Images were acquired with a phase contrast microscope with 20× and 40× objective lenses. The scale bars were added with ImageJ software.
# Cyp2e1 [2] = assay: Cyp2e1 mRNA and protein expression in mouse liver (RT-qPCR, Western blot); assay type: in vivo; conditions: mice, single i.p. APAP 350 mg/kg, 24 h
# Text: Antibodies against CYP2E1 were kindly provided by Proteintech Biotechnology.
# CYP2E1 [3] = target: CYP2E1 (Homo sapiens, UniProt P05181)
# Chain of CYP2E1 (Homo sapiens, UniProt P05181) (P05181 whole entry): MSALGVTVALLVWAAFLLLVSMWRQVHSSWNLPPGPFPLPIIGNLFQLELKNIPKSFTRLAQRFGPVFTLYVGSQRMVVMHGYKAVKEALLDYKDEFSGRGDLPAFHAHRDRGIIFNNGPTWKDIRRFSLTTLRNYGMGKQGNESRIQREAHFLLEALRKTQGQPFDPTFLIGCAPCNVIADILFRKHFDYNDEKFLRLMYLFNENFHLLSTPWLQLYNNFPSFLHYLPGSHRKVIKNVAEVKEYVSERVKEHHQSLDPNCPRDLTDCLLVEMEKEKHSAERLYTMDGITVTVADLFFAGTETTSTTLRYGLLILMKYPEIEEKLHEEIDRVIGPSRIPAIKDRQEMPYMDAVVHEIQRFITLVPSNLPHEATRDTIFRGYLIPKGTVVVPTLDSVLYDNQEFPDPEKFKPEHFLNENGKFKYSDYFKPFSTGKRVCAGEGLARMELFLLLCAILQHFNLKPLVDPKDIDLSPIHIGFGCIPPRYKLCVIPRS
# Protocol: (§3) The probe substrate CLX, 50 mM potassium phosphate buffer (KPI, pH 7.4), and 0.25 mg/mL HLMS or RLMs were mixed and then an NADPH-regenerating system (1 mM β-NADP, 5 mM D-glucose-6-phosphate, 1 U/mL glucose-6-phosphate dehydrogenase, and 5 mM MgCl2) were added to initiate reaction. […] HLMs or RLMs were incubated with CLX at 37 °C for 30 min. At the end of the incubation, 100 µL of precooled acetonitrile was added to terminate the reaction. After vortexing and centrifugation at 14,000 rpm for 5 min, 50 µL of supernatant mixed with 10 µL of the internal standard GEN was removed, and the sample was analyzed by HPLC–MS/MS.
# (§4) Activities were expressed as a percentage of 6-OH-CLX production in the blank control.
# (§5) Nonlinear regression analysis in GraphPad was used to calculate Km and Vmax. To determine the inhibitory type of CYP2E1 by SM, the above data were plotted as a Lineweaver–Burk plot.
# (§6) Inhibition data were plotted as Dixon plots, and the inhibition constant (Ki) was calculated from the regression equation.
# CYP2E1 [4] = target: T1, CYP2E1; conditions: microsomes
# Protocol: as §3, §4, §5, §6
# CYP2E1 [5] = target: T1, CYP2E1; conditions: in vivo
# Protocol: as §1, §2
# T1 sequence (P05182 whole entry): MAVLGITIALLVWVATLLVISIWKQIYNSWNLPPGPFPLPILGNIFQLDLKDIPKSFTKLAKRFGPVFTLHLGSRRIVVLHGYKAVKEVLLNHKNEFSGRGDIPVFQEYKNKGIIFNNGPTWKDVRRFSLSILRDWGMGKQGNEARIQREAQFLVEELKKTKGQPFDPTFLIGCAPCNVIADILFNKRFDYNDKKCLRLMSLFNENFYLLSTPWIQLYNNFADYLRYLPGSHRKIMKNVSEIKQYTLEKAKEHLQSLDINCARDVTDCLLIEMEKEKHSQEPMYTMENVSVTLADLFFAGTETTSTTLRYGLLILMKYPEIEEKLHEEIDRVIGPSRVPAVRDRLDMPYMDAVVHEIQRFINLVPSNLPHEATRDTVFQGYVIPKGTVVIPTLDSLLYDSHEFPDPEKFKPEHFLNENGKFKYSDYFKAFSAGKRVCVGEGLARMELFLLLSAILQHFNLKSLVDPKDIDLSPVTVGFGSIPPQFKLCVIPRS
compound,measurement,setting,value
O=c1[nH]c2cc(Cl)c(O)cc2o1 [6-OH-CLX],AUC0-t of 6-OH-CLX,CYP2E1 [1],287.58 ± 106.13 ng·h/mL
same,AUC0-∞ of 6-OH-CLX,CYP2E1 [1],325.78 ± 127.17 ng·h/mL
"CC(=O)Nc1ccc(O)cc1 [APAP, Acetaminophen]","liver histopathology (H&E), hepatic lobule structure",APAP-induced ALI mice,severely damaged
same,liver reduced GSH content vs solvent control group,APAP-induced ALI mice,significantly reduced
same,serum ALT level vs solvent control group,APAP-induced ALI mice,significantly increased
same,serum AST level vs solvent control group,APAP-induced ALI mice,significantly increased
same,liver Cyp2e1 mRNA and protein expression vs solvent control group,Cyp2e1 [2],significantly upregulated
silymarin,Km of CLX,CYP2E1 [3],1827 ± 318 µM
same,Vmax of CLX,CYP2E1 [3],4.56 ± 1.67 nM/h/mg Protein
same,IC50,CYP2E1 [3]; microsomes,14.8 µM
same,Ki,CYP2E1 [3]; microsomes,23.2 µM
same,IC50,CYP2E1 [4],26.1 µM
same,Ki,CYP2E1 [4],9.49 µM
same,CL of CLX,CYP2E1 [5],4.5353 ± 0.6998 mL/min/kg
same,Vd of CLX,CYP2E1 [5],1.56626 ± 0.67478 L/kg
same,t1/2 of CLX,CYP2E1 [5],3.92 ± 1.25 h
same,tmax of CLX,CYP2E1 [5],0.58 ± 0.30 h
